Source: US11352356B2, “Inhibitors of plasma kallikrein and uses thereof” (Takeda Pharmaceutical Company Limited, priority 2018, dated 2022)

Target: human activated kallikrein enzyme (Homo sapiens (Human), UniProt P03952)
Assay: Inhibition of human activated plasma kallikrein, fluorogenic peptide substrate assay, 500 pM enzyme format
Type: biochemical
Details: 500 pM activated kallikrein, 300 uM Pro-Phe-Arg-7-amido-4-methylcoumarin substrate, 30 min preincubation, 10 min reaction at RT; read-out: Primary Dose Response Assay: Average EC50
Procedure: Example compounds were evaluated for inhibition of the human activated kallikrein enzyme in two formats of an assay employing a fluorogenic peptide substrate. In one assay format, the concentrations of reagents were as follows: 20 mM Tris pH 7.5, 1 mM EDTA, 150 mM sodium chloride, 0.1% PEG-400, 0.1% Triton X-100, 500 pM activated kallikrein enzyme, 300 uM Pro-Phe-Arg-7-amido-4-methylcoumarin substrate. Prior to reaction initiation with substrate, enzyme and inhibitors were preincubated for 30 min at RT. After initiation with substrate, reactions were incubated for 10 min at RT and fluorescence emission at 460 nm from 380 nm excitation measured with a microplate reader. In another assay format, the concentrations of reagents were as follows: 20 mM Tris pH 7.5, 1 mM EDTA, 150 mM sodium chloride, 0.1% PEG-400, 0.1% Triton X-100, 5 pM activated kallikrein enzyme, 300 uM Pro-Phe-Arg-7-amido-4-methylcoumarin substrate. Prior to reaction initiation with substrate, enzyme and inhibitors were preincubated for 30 min at RT. After initiation with substrate, reactions were incubated for 18 h at RT and fluorescence emission at 460 nm from 380 nm excitation measured with a microplate reader.

Sequence of human activated kallikrein enzyme (P03952 391-638): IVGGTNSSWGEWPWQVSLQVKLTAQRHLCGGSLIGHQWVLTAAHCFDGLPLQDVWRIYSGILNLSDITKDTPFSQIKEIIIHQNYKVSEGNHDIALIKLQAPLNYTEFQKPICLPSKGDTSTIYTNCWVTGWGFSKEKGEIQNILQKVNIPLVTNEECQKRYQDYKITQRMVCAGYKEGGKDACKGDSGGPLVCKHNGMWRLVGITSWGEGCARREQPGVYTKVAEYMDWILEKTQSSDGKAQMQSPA
Sequence of human activated kallikrein enzyme (P03952 20-390 partner): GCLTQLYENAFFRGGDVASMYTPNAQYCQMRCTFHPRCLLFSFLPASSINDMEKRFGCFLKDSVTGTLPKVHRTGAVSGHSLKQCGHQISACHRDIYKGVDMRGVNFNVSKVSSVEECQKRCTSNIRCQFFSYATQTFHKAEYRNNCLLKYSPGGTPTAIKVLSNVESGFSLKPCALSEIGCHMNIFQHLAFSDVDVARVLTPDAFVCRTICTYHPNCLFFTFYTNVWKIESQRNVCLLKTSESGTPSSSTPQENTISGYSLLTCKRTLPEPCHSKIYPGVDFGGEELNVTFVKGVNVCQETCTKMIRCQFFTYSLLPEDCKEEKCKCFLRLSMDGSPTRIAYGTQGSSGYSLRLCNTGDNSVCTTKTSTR

Compound	EC50 [nM]
CC(C)(C(=O)O)C(O)c1cc(C2CC2)cn2cc(Cn3cc(C(=O)NCc4ncn5ccc(Cl)c(F)c45)nn3)nc12 (centres unmarked) [I-241b, 3-(2-((4-(((7-chloro-8-fluoroimidazo[1,5-a]pyridin-1-yl)methyl)carbamoyl)-1H-1,2,3-triazol-1-yl)methyl)-6-cyclopropylimidazo[1,2-a]pyridin-8-yl)-3-hydroxy-2,2-dimethylpropanoic acid]	< 1
COc1ccc2nc(CNC(=O)c3cnn(Cc4cn5ccc(C6CC6)cc5n4)c3)cn2c1 [I-12, 1-((7-cyclopropylimidazo[1,2-a]pyridin-2-yl)methyl)-N-((6-methoxyimidazo[1,2-a]pyridin-2-yl)methyl)-1H-pyrazole-4-carboxamide]	10 to 100
N-((7-chloro-8-fluoroimidazo[1,5-a]pyridin-1-yl)methyl)-1-((8-(2-cyano-2-methylpropyl)-6-cyclopropylimidazo[1,2-a]pyridin-2-yl)methyl)-1H-pyrazole-4-carboxamide [I-237]	< 1
1-(2-((4-(((7-chloroimidazo[1,5-a]pyridin-1-yl)methyl)carbamoyl)-1H-pyrazol-1-yl)methyl)imidazo[1,2-a]pyridin-8-yl)cyclopropane-1-carboxylic acid [I-116]	1 to 10
O=C(NCc1ncn2ccc(Cl)c(F)c12)c1cn(Cc2ccc3nccnc3c2)nn1 [I-292, N-((7-chloro-8-fluoroimidazo[1,5-a]pyridin-1-yl)methyl)-1-(quinoxalin-6-ylmethyl)-1H-1,2,3-triazole-4-carboxamide]	10 to 100
O=C(NCc1ncn2ccc(Cl)c(F)c12)c1cn(Cc2cn3ccccc3n2)nn1 [I-286, N-((7-chloro-8-fluoroimidazo[1,5-a]pyridin-1-yl)methyl)-1-(imidazo[1,2-a]pyridin-2-ylmethyl)-1H-1,2,3-triazole-4-carboxamide]	10 to 100
N-((7-chloroimidazo[1,5-a]pyridin-1-yl)methyl)-1-((8-(1-(hydroxymethyl)cyclopropyl)imidazo[1,2-a]pyridin-2-yl)methyl)-1H-pyrazole-4-carboxamide [I-117]	< 1
O=C(NCc1ncn2ccc(Cl)cc12)c1cnn(Cc2cn3nc(C4CC4)ccc3n2)c1 [I-11, N-((7-chloroimidazo[1,5-a]pyridin-1-yl)methyl)-1-((6-cyclopropylimidazo[1,2-b]pyridazin-2-yl)methyl)-1H-pyrazole-4-carboxamide]	1 to 10
O=C(NCc1ncn2ccc(Cl)c(F)c12)c1cn(Cc2cc3ccc(C4CC4)cc3o2)nn1 [I-219, N-((7-chloro-8-fluoroimidazo[1,5-a]pyridin-1-yl)methyl)-1-((6-cyclopropylbenzofuran-2-yl)methyl)-1H-1,2,3-triazole-4-carboxamide]	10 to 100
Ethyl 1-(2-((4-(((7-chloroimidazo[1,5-a]pyridin-1-yl)methyl)carbamoyl)-1H-pyrazol-1-yl)methyl)imidazo[1,2-a]pyridin-8-yl)cyclopropane-1-carboxylate [I-115]	< 1
O=C(NCc1ncn2ccc(Cl)c(F)c12)c1cn(Cc2cn3cc(C4CC4)cc(CC(F)C(=O)O)c3n2)nn1 (centres unmarked) [I-224b, 3-(2-((4-(((7-chloro-8-fluoroimidazo[1,5-a]pyridin-1-yl)methyl)carbamoyl)-1H-1,2,3-triazol-1-yl)methyl)-6-cyclopropylimidazo[1,2-a]pyridin-8-yl)-2-fluoropropanoic acid]	< 1
CCOC(=O)CCn1c(Cn2cc(C(=O)NCc3ncn4ccc(Cl)c(F)c34)nn2)cc2cc(C3CC3)ccc21 [I-251a, Ethyl 3-(2-((4-(((7-chloro-8-fluoroimidazo[1,5-a]pyridin-1-yl)methyl)carbamoyl)-1H-1,2,3-triazol-1-yl)methyl)-5-cyclopropyl-1H-indol-1-yl)propanoate]	1 to 10
N-((7-chloroimidazo[1,5-a]pyridin-1-yl)methyl)-1-((6-cyclopropyl-8-(2-methoxyethoxy)imidazo[1,2-a]pyridin-2-yl)methyl)-1H-pyrazole-4-carboxamide [I-103]	< 1

Same assay, conditions: comparative compounds; 500 pM activated kallikrein format; read-out: Primary Dose Response Assay: Average EC50

Compound	EC50 [nM]
Cc1ccn2cc(Cn3cc(C(=O)NCc4cnc5ccc(Cl)cn45)cn3)nc2c1 [reference compound]	100 to 2000
